Test results: US20110071197A1, “BIS-ARYL COMPOUNDS FOR USE AS MEDICAMENTS” (priority 2008, published 2011)

Experiments:
[1] = target: T1, Recombinant human LTC4 synthase (Homo sapiens, UniProt Q16873); assay: LTC4 synthase in vitro assay (HPLC method); assay type: biochemical; conditions: inhibition of LTC4 synthase
T1 construct: made in house; host or cells: Pichia pastoris
T1 sequence (Q16873 1-150): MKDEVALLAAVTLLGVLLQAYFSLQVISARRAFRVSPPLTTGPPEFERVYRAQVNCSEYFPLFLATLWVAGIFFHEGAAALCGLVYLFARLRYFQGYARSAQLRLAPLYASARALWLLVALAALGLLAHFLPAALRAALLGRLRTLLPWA
Protocol: In the assay, LTC4 synthase catalyses the reaction where the substrate LTA4 methyl ester is converted to the corresponding LTC4 methyl ester. Recombinant human LTC4 synthase is expressed in Piccia pastoralis and the purified enzyme is dissolved in 25 mM Tris-buffer pH 7.8 and stored at −80° C. The assay is performed in phosphate buffered saline (PBS) pH 7.4, supplemented with 5 mM glutathione (GSH). The reaction is terminated by addition of acetonitrile/MeOH/acetic acid (50/50/1). The assay is performed at rt in 96-well plates. Analysis of the formed LTC4 methyl ester is performed with reversed phase HPLC (Waters 2795 utilizing an Onyx Monolithic C18 column). The mobile phase consists of acetonitrile/MeOH/H2O (32.5/30/37.5) with 1% acetic acid pH adjusted with NH3 to pH 5.6, and absorbance measured at 280 nm with a Waters 2487 UV-detector.
The following is added chronologically to each well: • 1. 50 μl assay buffer, PBS with 5 mM GSH. • 2. 0.5 μl inhibitor in DMSO (final conc. 1 nM-10 μM). • 3. 2 μl LTC4 synthase in PBS. The total protein concentration in this solution is 0.025 mg/ml. Incubation of the plate at room temperature for 10 minutes. • 4. 1-1.5 μl LTA4 methyl ester (final conc. 10 μM). Incubation of the plate at rt for 1 min. • 5. 50 μl stop solution.
80 μl of the incubation mixture is analysed with HPLC.

[2] = target: T1, Recombinant human LTC4 synthase; assay: LTC4 synthase in vitro assay (HTRF detection of LTC4); assay type: biochemical; conditions: HTRF method; for inhibition at 10 µM: total concentration of title compound in the assay 10 μM
Procedure, shortened: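 Pichia-expressed recombinant human LTC4 synthase at 0.5 μg/ml total protein in PBS pH 7.4 with 5 mM GSH, preincubated 10 min at RT with inhibitor (10 μM final). LTA4 (2.5 μM final) was then added for 5 min at RT. LTC4 formed was read by HTRF.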

| Compound | IC50 [1] [nM] | inhibition at 10 µM [2] [%] | inhibition at 3 µM ([2]; compound concentration 3 μM) [%] |
| --- | --- | --- | --- |
| CCCCOc1ccc(S(=O)(=O)Nc2ccc(Oc3cccc(Oc4ccc(F)c(F)c4)c3)cc2C(=O)O)cc1 [28:1] | 629 | 98 | – |
| CC(C)(C)c1ccc(C(=O)Nc2cccc(Oc3ccc(NS(=O)(=O)c4ccc(C(C)(C)C)cc4)c(C(=O)O)c3)c2)cc1 [29:1] | 802 | 97 | – |
| O=C(O)c1cc(Oc2ccc(Nc3ccc(F)cc3)c(C(=O)O)c2)ccc1Nc1ccc(F)cc1 [1:2, 3,3′-oxybis[6-(4-fluorophenyl-amino)benzoic acid]] | 845 | 97 | – |
| CCCCOc1ccc(S(=O)(=O)Nc2ccc(Oc3cccc(S(=O)(=O)Nc4ccc(Cl)cc4)c3)cc2C(=O)O)cc1 [19:1, 2-(4-Butoxy-benzenesulfonylamino)-5-[3-(4-chloro-phenylsufamoyl)-phenoxy]-benzoic acid] | 1160 | 100 | – |
| CC(C)Oc1ccc(C(=O)Nc2ccc(Oc3ccc(NC(=O)c4ccccc4)cc3)cc2/C=C/C(=O)O)cc1 [Example 22:3, (E)-3-[5-(4-Benzoylaminophenoxy)-2-(4-isopropoxy-benzoylamino)-phenyl]acrylic acid] | 5110 | 72 | – |
| O=C(Nc1ccc(Sc2ccc(NC(=O)Nc3ccc(C(F)(F)F)cc3)c(C(=O)O)c2)cc1)Nc1ccc(C(F)(F)F)cc1 [14:6, 2-[3-(4-trifluoromethyl-phenyl)ureido]-5-{4-[3-(4-trifluoromethylphenyl)-ureido]phenylsulfanyl}-benzoic acid] | 449 | – | 80 |
